Laboratory results as given in publication PMC5607274, “An iterative compound screening contest method for identifying target protein inhibitors using the tyrosine-protein kinase Yes” (Scientific Reports, 2017).

The molecules below were run against T1, human recombinant Yes [a.a. 2–543 (end)] (Homo sapiens, UniProt P07947) (assay: ADP-Glo kinase assay, inhibition rates of Yes phosphorylation activity (first and second screening)). Conditions: first screening; mean of n = 4 wells; 10 μmol L−1 compound.
T1 construct: human recombinant Yes [a.a; 2–543 (end)]; purchased BPS Bioscience 40488
T1 sequence (P07947 2-543): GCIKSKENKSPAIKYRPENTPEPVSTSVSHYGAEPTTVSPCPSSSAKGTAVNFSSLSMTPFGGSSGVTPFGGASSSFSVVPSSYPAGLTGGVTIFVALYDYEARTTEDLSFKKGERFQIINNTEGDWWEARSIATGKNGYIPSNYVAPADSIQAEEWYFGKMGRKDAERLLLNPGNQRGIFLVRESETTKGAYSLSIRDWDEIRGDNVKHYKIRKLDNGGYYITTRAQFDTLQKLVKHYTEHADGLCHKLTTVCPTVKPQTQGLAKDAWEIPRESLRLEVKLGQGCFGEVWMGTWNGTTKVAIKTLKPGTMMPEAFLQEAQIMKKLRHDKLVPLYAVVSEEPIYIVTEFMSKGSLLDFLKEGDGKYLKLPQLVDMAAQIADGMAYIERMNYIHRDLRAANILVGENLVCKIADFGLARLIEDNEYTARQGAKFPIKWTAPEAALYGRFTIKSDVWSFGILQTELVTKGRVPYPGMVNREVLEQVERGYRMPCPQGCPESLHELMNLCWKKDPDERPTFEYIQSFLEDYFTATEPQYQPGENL
Assay type: biochemical
How it was run: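 Hits from a first pass were rescreened after re-dissolution from fresh powder. The first pass reported the mean inhibition rate of quadruplicate wells per compound. Activity was that of recombinant human Yes [a.a. 2–543] kinase, read out with the ADP-Glo ADP-detection method.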

Row | Structure (SMILES) | First screening IR (inhibition rate) [%]
1 | Cc1nn(CC(C)C)c2sc(C(=O)N3c4ccccc4C[C@H]3C(N)=O)cc12 [Compound Z996487836] | 1
2 | O=C(c1cccn1Cc1ccncc1)N1CCOC(c2ccc(F)cc2)C1 (stereo not drawn) [Compound Z998371530] | 13
3 | Cc1nc(NC(=O)c2cccc(NC(N)=O)c2)sc1SCC#N [Compound Z1000171966] | -2
4 | Cc1ccnc(NC(=O)C2CCN(c3ccc(C#N)cc3F)CC2)c1 [Compound Z1002220042] | 1
5 | COc1ccc(-c2c(C#N)c(=O)[nH]c3c2c(C)nn3-c2ccccc2)cc1OC [Compound Z1007027518] | -1
6 | Cc1cc(C)c2c(c1)C(O)(CC(=O)c1ccccc1)C(=O)N2 (stereo not drawn) [Compound Z1013750782] | 0
7 | FC(F)(F)c1ccnc(Nc2ccc(NC3CCOCC3)cc2)n1 [Compound Z1021076320] | 13
8 | O=C(O)c1cnc(/C=C/c2cccnc2)s1 [Compound Z1021595256] | 0
9 | CNC(=O)c1cnc(/C=C/c2cccnc2)s1 [Compound Z1029489284] | 5
10 | CCN1CCN(S(=O)(=O)C2CS(=O)(=O)c3ccccc32)CC1 (stereo not drawn) [Compound Z1031094372] | 8
11 | CC1(C)CN(S(=O)(=O)C2CS(=O)(=O)c3ccccc32)CCO1 (stereo not drawn) [Compound Z1031114832] | -4
12 | CC(C)CNC(=O)c1c(N)n(CCc2ccccc2)c2nc3ccccc3nc12 [Compound Z1033301058] | -2
13 | CC1CN(CC2CCN(CC(=O)Nc3cc(Cl)ccc3Cl)CC2)CC(C)O1 (stereo not drawn) [Compound Z1033314424] | 2
14 | Cc1nc(-c2ccc(Br)cc2)nc(NCCO)c1C [Compound Z1037335626] | 13
15 | CCN(CC)C(=O)c1ccc(NS(=O)(=O)c2cc3c(cc2Cl)NC(=O)C3)cc1 [Compound Z1037385644] | -4
16 | Cc1ccc(C(=O)Nc2cc(C(=O)N3CCCCC3)ccc2Cl)o1 [Compound Z1037939812] | 3
17 | NC(=O)N1CCC(C(=O)N2CCCC2CC2CC3CCC2C3)CC1 (stereo not drawn) [Compound Z1038829842] | 2
18 | N#Cc1cnc(N2CCN(S(=O)(=O)c3cc(Cl)ccc3Cl)CC2)c(Cl)c1 [Compound Z1039059796] | 0
19 | N#Cc1cnc(NCCC(=O)N2CCc3sccc3C2)c(Cl)c1 [Compound Z1039090738] | 2
20 | Cc1oc(-c2ccsc2)nc1CC(=O)Nc1cc(C(N)=O)n(C)c1 [Compound Z1039455578] | 2
21 | Cn1ccc2c(NC(=O)NCc3ccnc(N4CCCC4)c3)cccc21 [Compound Z1040576806] | -8
22 | Cc1nc2n(n1)CC(NCc1cn[nH]c1-c1ccc(C)o1)CC2 (stereo not drawn) [Compound Z1051950052] | 20
23 | CN(C)C(=O)Cn1cc(NC(=O)c2ccc3cc[nH]c3c2)cn1 [Compound Z1067269008] | -5
24 | Cn1cc(NC(=O)C2(c3cccc(C(F)(F)F)c3)CC2)cn1 [Compound Z1068296272] | 25

Row | Structure (SMILES) | First screening IR (inhibition rate) [%]
25 | c1cc(-c2nc3c(c(N4CCCC(N5CCCC5)C4)n2)CCC3)ccn1 (stereo not drawn) [Compound Z1070397714] | 56
26 | Cc1cccc(-c2nc(C(C)C)no2)c1NC(=O)CCc1ccccc1 [Compound Z1082320758] | 4
27 | CCN(CC)S(=O)(=O)c1ccc(N2CCC(NC(C)C)CC2)c([N+](=O)[O-])c1 [Compound Z1082766798] | 8
28 | CCN(c1cccnc1)S(=O)(=O)c1cc(S(C)(=O)=O)ccc1Cl [Compound Z1082836308] | -7
29 | CN(C1CCCCC1)S(=O)(=O)N1CCS(=O)(=O)CC1 [Compound Z1082836720] | -4
30 | Cc1cccc(=O)n1CCCCNc1cnc2ccccc2n1 [Compound Z1084012684] | 10
31 | CCOCCCn1c(NC(=O)c2ccc3c(c2)CCN3C(C)=O)nc2ccccc21 [Compound Z1090594860] | -9
32 | c1cncc(-c2nc(SCc3nc4ccccc4o3)n[nH]2)c1 [Compound Z1095448120] | -2
33 | CC1CCCN(Cc2ccc(CNCC3CNc4ccnn4C3)cc2)C1 (stereo not drawn) [Compound Z1097879141] | -4
34 | Cc1nc(-c2cc(C(=O)N3CCCC(n4ccnc4)C3)co2)cs1 (stereo not drawn) [Compound Z1102775620] | -5
35 | CCN(CCC#N)S(=O)(=O)c1cccc(S(C)(=O)=O)c1 [Compound Z1116704440] | -6
36 | COCCN(CCC#N)S(=O)(=O)c1ccccc1S(C)(=O)=O [Compound Z1116705979] | 42
37 | COc1ccc(-c2n[nH]c(CNC(=O)C3=NN(C)C(=O)CC3)n2)cc1 [Compound Z1119644111] | 4
38 | CC(C)c1nnc(CNC(C)(C)c2ccc(Cl)cc2)o1 [Compound Z1120830695] | 17
39 | CN(C)C(=O)Sc1ccc(NC(=O)COc2ccc(F)cc2)cc1 [Compound Z1126778415] | -17
40 | Cc1cccc(OCC(=O)Nc2ccc(SC(=O)N(C)C)cc2)c1 [Compound Z1126778839] | -6
41 | Cc1cc(N(Cc2cn3ccsc3n2)C(C)C)ccc1C(N)=O [Compound Z1127155490] | -7
42 | CCN1CCCN(S(=O)(=O)c2ccccc2S(C)(=O)=O)CC1 [Compound Z1127188257] | 43
43 | Cc1ccc(C)c(CS(=O)(=O)CCCS(=O)(=O)N(C)C)c1 [Compound Z1127660495] | 12
44 | CN(C)S(=O)(=O)CCCS(=O)(=O)Cc1cccc(F)c1 [Compound Z1127660834] | 6
45 | CN(C)S(=O)(=O)CCCS(=O)(=O)Cc1ccc(Cl)cc1 [Compound Z1127660880] | -4
46 | O=C(Nc1n[nH]c(-c2ccccn2)n1)c1ccc(-n2cccn2)c(F)c1 [Compound Z1128365659] | 4
47 | O=C(CCN1CCCC1=O)Nc1ccc(Oc2ccc(F)cc2)cn1 [Compound Z1129155203] | -12
48 | CNc1snc(C)c1C(=O)NC(C)c1sc(-c2ccc(F)cc2)nc1C (stereo not drawn) [Compound Z1129440199] | 29

Row | Structure (SMILES) | First screening IR (inhibition rate) [%]
49 | CC(C)(C)OC(=O)N1CCCc2cc(NC(=O)c3cnc[nH]3)ccc21 [Compound Z1131596340] | 1
50 | Cc1ccc(S(=O)(=O)CCCS(=O)(=O)N(C)C)c(C)c1 [Compound Z1134191614] | -1
51 | CN(C)S(=O)(=O)CCCS(=O)(=O)c1nccn1C [Compound Z1134191724] | 22
52 | Oc1c(Br)cccc1CNCc1ncc(-c2ccccc2)o1 [Compound Z1135283259] | -4
53 | N#Cc1cccc(C(=O)NCc2nc(-c3ccc(F)cc3)n[nH]2)c1 [Compound Z1137567528] | 55
54 | Cn1ncc2c(N3CCOC(Cn4cccn4)C3)ncnc21 (stereo not drawn) [Compound Z1139215576] | 18
55 | Cc1nc(C)n(C2CCCN(C(=O)CCn3ccnc3)C2)n1 (stereo not drawn) [Compound Z1139343408] | 0
56 | CC(C)c1nc2n(n1)CC(NCc1cc(-c3cccs3)on1)CC2 (stereo not drawn) [Compound Z1139411735] | -5
57 | CCc1nnc2n1CCN(CC(=O)NC1CCCc3ccccc31)C2 (stereo not drawn) [Compound Z1139436344] | -6
58 | Cn1cc(CNC2CCc3ncnn3C2)c(-c2ccncc2)n1 (stereo not drawn) [Compound Z1139562831] | 22
59 | Cc1cccc(-c2[nH]ncc2CNC(C)C(C)n2cccn2)c1 (stereo not drawn) [Compound Z1143064210] | -7
60 | CSc1sc(NC(=O)c2n[nH]c(C(C)C)c2Br)nc1C [Compound Z1143428685] | 3
61 | Cc1cc(S(C)(=O)=O)c(C)c(S(=O)(=O)N2CCCCCC2)c1 [Compound Z1145185709] | 6
62 | Cc1cc(S(C)(=O)=O)c(C)c(S(=O)(=O)N2CCCC(C)C2)c1 (stereo not drawn) [Compound Z1145185785] | 14
63 | C=CCN(CC=C)S(=O)(=O)c1cc(C)cc(S(C)(=O)=O)c1C [Compound Z1145185872] | 4
64 | CCN(CCC#N)S(=O)(=O)c1cc(C)cc(S(C)(=O)=O)c1C [Compound Z1145197816] | -2
65 | CN(C)S(=O)(=O)c1ccc(CS(=O)(=O)C2CCCC2)o1 [Compound Z1147565999] | -1
66 | CCC(C)NC(=O)c1ccc2c(=O)n(CC(C)C)c3nnc(SCC(=O)Nc4ccccc4C)n3c2c1 (stereo not drawn) [Compound Z1157725045] | -8
67 | CCC(C)NC(=O)c1ccc2c(=O)n(CC(C)C)c3nnc(SCC(=O)Nc4cccc(C)c4)n3c2c1 (stereo not drawn) [Compound Z1157725046] | 0
68 | O=C(CCc1nnc2n(Cc3ccc(Cl)cc3)c(=O)c3ccccc3n12)NCCCN1CCOCC1 [Compound Z1157834172] | -1
69 | CCC(Sc1nc2ccccc2c2nc(CCN3CCCCC3)nn12)C(=O)Nc1ccc2c(c1)OCO2 (stereo not drawn) [Compound Z1157834229] | -8
70 | CCSc1cncc(N2CCC(C(=O)NC(C)C(C)C)CC2)n1 (stereo not drawn) [Compound Z1168201963] | 4
71 | CC(C)NC(=O)N1CCCCCC1C1CCN(c2ncc(C(N)=O)cc2Cl)CC1 (stereo not drawn) [Compound Z1168219830] | 13
72 | CC(C)N(CCNC(=O)CCc1nnc2n(Cc3ccccc3)c(=O)c3ccccc3n12)Cc1ccco1 [Compound Z1169067733] | 3
